Source: US9169254B2, “Spiroimidazolone derivative” (Chugai Seiyaku Kabushiki Kaisha, priority 2009, dated 2015)

Target: T1, human PTH1 receptor (Homo sapiens, UniProt Q03431)
T1 sequence (Q03431 27-593): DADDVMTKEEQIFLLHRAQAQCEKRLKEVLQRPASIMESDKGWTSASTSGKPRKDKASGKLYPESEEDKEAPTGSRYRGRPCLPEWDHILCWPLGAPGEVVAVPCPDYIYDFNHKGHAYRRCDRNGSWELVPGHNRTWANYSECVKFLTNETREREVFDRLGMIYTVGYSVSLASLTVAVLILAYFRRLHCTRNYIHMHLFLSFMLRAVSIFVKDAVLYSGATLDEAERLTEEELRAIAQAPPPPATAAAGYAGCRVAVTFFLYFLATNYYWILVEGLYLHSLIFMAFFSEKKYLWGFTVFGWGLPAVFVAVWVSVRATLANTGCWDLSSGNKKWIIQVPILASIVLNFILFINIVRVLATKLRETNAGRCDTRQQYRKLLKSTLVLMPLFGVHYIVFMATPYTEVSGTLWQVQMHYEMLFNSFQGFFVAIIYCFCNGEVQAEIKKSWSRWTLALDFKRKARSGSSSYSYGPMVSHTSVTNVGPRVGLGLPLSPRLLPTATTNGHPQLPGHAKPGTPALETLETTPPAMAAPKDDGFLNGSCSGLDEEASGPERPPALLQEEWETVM
Assay: In vitro cAMP signal activity in HKRK-B7 cells (LLC-PK1 cells overexpressing the human PTH1 receptor)
Format: cell-based
Settings: HKRK-B7 cells; compound at 1×10^−3 M; cAMP produced as percentage of that produced by hPTH(1-34) at 100 nM

| Compound | cAMP production activity (%) |
| --- | --- |
| CC(C)(C)OCC(=O)N1CCCC(C2=NC3(CCN(S(=O)(=O)CCc4cccc5ccccc45)CC3)C(=O)N2)C1 (stereo not shown) [Compound 439, 2-[1-(2-tert-butoxy-acetyl)-piperidin-3-yl]-8-(2-naphthalen-1-yl-ethanesulfonyl)-1,3,8-triaza-spiro[4.5]dec-1-en-4-one] | 33% |
| CN(C)CCNC(=O)Cc1ccc(CCS(=O)(=O)N2CCC3(CC2)N=C(C2CCCCC2)NC3=O)cc1 [Compound 282, 2-{4-[2-(2-cyclohexyl-4-oxo-1,3,8-triaza-spiro[4.5]dec-1-ene-8-sulfonyl)-ethyl]-phenyl}-N-(2-dimethylamino-ethyl)-acetamide] | 29% |
| O=C1NC(C2CCCN(S(=O)(=O)c3ccccc3)C2)=NC12CCN(S(=O)(=O)c1cccc(Cl)c1)CC2 (stereo not shown) [Compound 41, 2-(1-benzenesulfonyl-piperidin-3-yl)-8-(3-chloro-benzenesulfonyl)-1,3,8-triaza-spiro[4.5]dec-1-en-4-one] | 21% |
| CC(=O)Nc1ccc(-c2ccc(S(=O)(=O)N3CCC4(CC3)N=C(C3CCCCC3)NC4=O)s2)c(C)c1 [Compound 332, N-{4-[5-(2-cyclohexyl-4-oxo-1,3,8-triaza-spiro[4.5]dec-1-ene-8-sulfonyl)-thiophen-2-yl]-3-methyl-phenyl}-acetamide] | 90% |
| Cc1cc(N(C)C(N)=O)cc(C)c1CCS(=O)(=O)N1CCC2(CC1)N=C(C1CCC3(CC1)CC3)NC2=O [Compound 1058, 1-{3,5-dimethyl-4-[2-(4-oxo-2-spiro[2.5]oct-6-yl-1,3,8-triaza-spiro[4.5]dec-1-ene-8-sulfonyl)-ethyl]-phenyl}-1-methyl-urea] | 133% |
| CC(=O)Nc1ccc(CCS(=O)(=O)N2CCC3(CC2)N=C(C2CCC(CCCCF)CC2)NC3=O)c(C)c1 (stereo not shown) [Compound 1296, N-[4-(2-{2-[4-(4-Fluoro-butyl)-cyclohexyl]-4-oxo-1,3,8-triaza-spiro[4.5]dec-1-ene-8-sulfonyl}-ethyl)-3-methyl-phenyl]-acetamide] | 64% |
| O=C(Nc1ccc(CCS(=O)(=O)N2CCC3(CC2)N=C(C2CCCCC2)NC3=O)c(C(F)(F)F)c1)c1ccccc1 [Compound 662, N-{4-[2-(2-cyclohexyl-4-oxo-1,3,8-triaza-spiro[4.5]dec-1-ene-8-sulfonyl)-ethyl]-3-trifluoromethyl-phenyl}-benzamide] | 23% |
| CC[C@H]1CC[C@H](C2=NC3(CCN(S(=O)(=O)CCc4ccc(N5C(=O)NC(=O)C5(C)C)cc4C)CC3)C(=O)N2)CC1 [Compound 887, 1-(4-{2-[2-(4-ethyl-cyclohexyl)-4-oxo-1,3,8-triaza-spiro[4.5]dec-1-ene-8-sulfonyl]-ethyl}-3-methyl-phenyl)-5,5-dimethyl-imidazolidine-2,4-dione] | 58% |

Now from value to molecule:

| cAMP production activity (%) | Compound |
| --- | --- |
| 63% | Cc1cc(C(=O)N2CCC(O)CC2)cc(C)c1/C=C/S(=O)(=O)N1CCC2(CC1)N=C(c1cccc(CC#N)c1)NC2=O [Compound 1282, [3-(8-{(E)-2-[4-(4-Hydroxy-piperidine-1-carbonyl)-2,6-dimethyl-phenyl]-ethenesulfonyl}-4-oxo-1,3,8-triaza-spiro[4.5]dec-1-en-2-yl)-phenyl]-acetonitrile] |
| 48% | Cc1cc2[nH]ccc2cc1/C=C/S(=O)(=O)N1CCC2(CC1)N=C(C1CCCCC1)NC2=O [Compound 488, 2-cyclohexyl-8-[(E)-2-(6-methyl-1H-indol-5-yl)-ethenesulfonyl]-1,3,8-triaza-spiro[4.5]dec-1-en-4-one] |
| 81% | [2H]C([2H])([2H])C([2H])([2H])Oc1ccc(C2=NC3(CCN(S(=O)(=O)/C=C/c4c(C)cc(C(=O)N5CCC(O)(CF)CC5)cc4C)CC3)C(=O)N2)cc1C(F)(F)F [Compound 1253, 2-(4-[1,1,2,2,2-^2H5]ethoxy-3-trifluoromethyl-phenyl)-8-{(E)-2-[4-(4-fluoromethyl-4-hydroxy-piperidine-1-carbonyl)-2,6-dimethyl-phenyl]-ethenesulfonyl}-1,3,8-triaza-spiro[4.5]dec-1-en-4-one] |
| 70% | Cc1cc(C(=O)N2CCN(C(C)(C)C)CC2)ccc1CCS(=O)(=O)N1CCC2(CC1)N=C(c1cccc(C(F)(F)F)c1)NC2=O [Compound 373, 8-{2-[4-(4-tert-butyl-piperazine-1-carbonyl)-2-methyl-phenyl]-ethanesulfonyl}-2-(3-trifluoromethyl-phenyl)-1,3,8-triaza-spiro[4.5]dec-1-en-4-one] |
| 87% | Cc1cc(C(=O)N2CCC(C)(O)CC2)cc(C)c1/C=C/S(=O)(=O)N1CCC2(CC1)N=C(c1ccc(F)c(C(F)(F)F)c1)NC2=O [Compound 642, 2-(4-fluoro-3-trifluoromethyl-phenyl)-8-{(E)-2-[4-(4-hydroxy-4-methyl-piperidine-1-carbonyl)-2,6-dimethyl-phenyl]-ethenesulfonyl}-1,3,8-triaza-spiro[4.5]dec-1-en-4-one] |
| 65% | Cc1cc(N2C[C@H](CO)OC2=O)ccc1CCS(=O)(=O)N1CCC2(CC1)N=C(c1cccc(C(F)(F)F)c1)NC2=O [Compound 296, 8-{2-[4-((R)-5-hydroxymethyl-2-oxo-oxazolidin-3-yl)-2-methyl-phenyl]-ethanesulfonyl}-2-(3-trifluoromethyl-phenyl)-1,3,8-triaza-spiro[4.5]dec-1-en-4-one] |
| 111% | Cc1cc(C(=O)N(C)C)ccc1CCS(=O)(=O)N1CCC2(CC1)N=C(c1cccc(Cl)c1F)NC2=O [Compound 93, 4-{2-[2-(3-chloro-2-fluoro-phenyl)-4-oxo-1,3,8-triaza-spiro[4.5]dec-1-ene-8-sulfonyl]-ethyl}-3,N,N-trimethyl-benzamide] |
| 77% | [2H]C([2H])([2H])C([2H])(Oc1ccc(C2=NC3(CCN(S(=O)(=O)/C=C/c4c(C)cc(C(=O)N5CCC(C)(O)CC5)cc4C)CC3)C(=O)N2)cc1C(F)(F)F)C([2H])([2H])[2H] [Compound 1222, 8-{(E)-2-[4-(4-hydroxy-4-methyl-piperidine-1-carbonyl)-2,6-dimethyl-phenyl]-ethenesulfonyl}-2-(4-[1,2,2,2,2,2,2-^2H7]isopropoxy-3-trifluoromethyl-phenyl)-1,3,8-triaza-spiro[4.5]dec-1-en-4-one] |
| 18% | Cc1cc(S(=O)(=O)Nc2ccncc2)ccc1/C=C/S(=O)(=O)N1CCC2(CC1)N=C(c1cccc(OC(F)(F)F)c1)NC2=O [Compound 530, 3-methyl-4-{(E)-2-[4-oxo-2-(3-trifluoromethoxy-phenyl)-1,3,8-triaza-spiro[4.5]dec-1-ene-8-sulfonyl]-vinyl}-N-pyridin-4-yl-benzenesulfonamide] |
| 78% | Cc1cc(C(=O)N2CCN(c3nccs3)CC2)ccc1CCS(=O)(=O)N1CCC2(CC1)N=C(c1cccc(C(F)(F)F)c1)NC2=O [Compound 364, 8-{2-[2-methyl-4-(4-thiazol-2-yl-piperazine-1-carbonyl)-phenyl]-ethanesulfonyl}-2-(3-trifluoromethyl-phenyl)-1,3,8-triaza-spiro[4.5]dec-1-en-4-one] |
| 10% | Cc1cc(C(=O)N2CC(O)C2)cc(C)c1/C=C/S(=O)(=O)N1CCC2(CC1)N=C(c1ccc(F)c(OC(F)(F)F)c1)NC2=O [Compound 1102, 2-(4-Fluoro-3-trifluoromethoxy-phenyl)-8-{(E)-2-[4-(3-hydroxy-azetidine-1-carbonyl)-2,6-dimethyl-phenyl]-ethenesulfonyl}-1,3,8-triaza-spiro[4.5]dec-1-en-4-one] |
